What was measured:
Assay type in all cases: cell-based
[1] = target: proteins of U3A human fibrosarcoma cells (4462 proteins detected) (Homo sapiens, UniProt Q92973); details: protein TNPO1; U3A cells
[2] = target: proteins of U3A human fibrosarcoma cells (4462 proteins detected) (Homo sapiens, UniProt P51532); details: protein SMARCA4; U3A cells
[3] = target: proteins of U3A human fibrosarcoma cells (4462 proteins detected) (Homo sapiens, UniProt Q9HAT2); details: protein SIAE; U3A, 10 μM, 2 h
[4] = target: proteins of U3A human fibrosarcoma cells (4462 proteins detected) (Homo sapiens, UniProt P31689); details: protein DNAJA1; U3A cells
[5] = target: proteins of U3A human fibrosarcoma cells (4462 proteins detected) (Homo sapiens, UniProt Q1ED39); details: protein KNOP1; U3A cells
[6] = target: proteins of U3A human fibrosarcoma cells (4462 proteins detected) (Homo sapiens, UniProt Q9NQG5); details: protein RPRD1B; soluble abundance after heat, U3A cells
[7] = target: proteins of U3A human fibrosarcoma cells (4462 proteins detected) (Homo sapiens, UniProt Q8N129); details: protein CNPY4, U3A cells
[8] = target: proteins of U3A human fibrosarcoma cells (4462 proteins detected) (Homo sapiens, UniProt O95456); details: protein PSMG1, U3A cells
[9] = target: proteins of U3A human fibrosarcoma cells (4462 proteins detected) (Homo sapiens, UniProt P49207); details: protein RPL34; U3A cells
[10] = target: proteins of U3A human fibrosarcoma cells (4462 proteins detected) (Homo sapiens, UniProt Q96T60); details: protein PNKP; U3A, 10 μM, 2 h
[11] = target: proteins of U3A human fibrosarcoma cells (4462 proteins detected) (Homo sapiens, UniProt Q16666); details: protein IFI16; soluble abundance after heat, U3A cells
[12] = target: proteins of U3A human fibrosarcoma cells (4462 proteins detected) (Homo sapiens, UniProt Q9UJF2); details: protein RASAL2, U3A cells
[13] = target: proteins of U3A human fibrosarcoma cells (4462 proteins detected) (Homo sapiens, UniProt Q9H6T3); details: protein RPAP3; soluble abundance after heat, U3A cells
[14] = target: proteins of U3A human fibrosarcoma cells (4462 proteins detected) (Homo sapiens, UniProt Q05397); details: protein PTK2; U3A cells
[15] = target: proteins of U3A human fibrosarcoma cells (4462 proteins detected) (Homo sapiens, UniProt O75976); details: protein CPD; soluble abundance after heat, U3A cells
[16] = target: proteins of U3A human fibrosarcoma cells (4462 proteins detected) (Homo sapiens, UniProt Q9Y6G5); details: protein COMMD10; U3A cells
[17] = target: proteins of U3A human fibrosarcoma cells (4462 proteins detected) (Homo sapiens, UniProt P26038); details: protein MSN, U3A cells
[18] = target: proteins of U3A human fibrosarcoma cells (4462 proteins detected) (Homo sapiens, UniProt Q8NFH4); details: protein NUP37, U3A cells
[19] = target: proteins of U3A human fibrosarcoma cells (4462 proteins detected) (Homo sapiens, UniProt Q92692); details: protein PVRL2; U3A cells
[20] = target: proteins of U3A human fibrosarcoma cells (4462 proteins detected) (Homo sapiens, UniProt Q9NRW3); details: protein APOBEC3C; U3A cells
[21] = target: proteins of U3A human fibrosarcoma cells (4462 proteins detected) (Homo sapiens, UniProt Q9Y2Q3); details: protein GSTK1; U3A cells
[22] = target: proteins of U3A human fibrosarcoma cells (4462 proteins detected) (Homo sapiens, UniProt Q96AT1); details: protein KIAA1143; U3A, 10 μM, 2 h
[23] = target: proteins of U3A human fibrosarcoma cells (4462 proteins detected) (Homo sapiens, UniProt Q9UJU6); details: protein DBNL, U3A cells
[24] = target: proteins of U3A human fibrosarcoma cells (4462 proteins detected) (Homo sapiens, UniProt Q9NWT1); details: protein PAK1IP1; U3A cells
[25] = target: proteins of U3A human fibrosarcoma cells (4462 proteins detected) (Homo sapiens, UniProt O75792); details: protein RNASEH2A; U3A cells
[26] = target: proteins of U3A human fibrosarcoma cells (4462 proteins detected) (Homo sapiens, UniProt O95197); details: protein RTN3; U3A cells
[27] = target: proteins of U3A human fibrosarcoma cells (4462 proteins detected) (Homo sapiens, UniProt P23396); details: protein RPS3; soluble abundance after heat, U3A cells
[28] = target: proteins of U3A human fibrosarcoma cells (4462 proteins detected) (Homo sapiens, UniProt Q9UN37); details: protein VPS4A; U3A cells
[29] = target: proteins of U3A human fibrosarcoma cells (4462 proteins detected) (Homo sapiens, UniProt Q9UQ80); details: protein PA2G4, U3A cells
[30] = target: proteins of U3A human fibrosarcoma cells (4462 proteins detected) (Homo sapiens, UniProt P10809); details: protein HSPD1; U3A, 10 μM, 2 h

proteins of U3A human fibrosarcoma cells (4462 proteins detected) (Homo sapiens, UniProt Q1ED39), sequence (Q1ED39 whole entry): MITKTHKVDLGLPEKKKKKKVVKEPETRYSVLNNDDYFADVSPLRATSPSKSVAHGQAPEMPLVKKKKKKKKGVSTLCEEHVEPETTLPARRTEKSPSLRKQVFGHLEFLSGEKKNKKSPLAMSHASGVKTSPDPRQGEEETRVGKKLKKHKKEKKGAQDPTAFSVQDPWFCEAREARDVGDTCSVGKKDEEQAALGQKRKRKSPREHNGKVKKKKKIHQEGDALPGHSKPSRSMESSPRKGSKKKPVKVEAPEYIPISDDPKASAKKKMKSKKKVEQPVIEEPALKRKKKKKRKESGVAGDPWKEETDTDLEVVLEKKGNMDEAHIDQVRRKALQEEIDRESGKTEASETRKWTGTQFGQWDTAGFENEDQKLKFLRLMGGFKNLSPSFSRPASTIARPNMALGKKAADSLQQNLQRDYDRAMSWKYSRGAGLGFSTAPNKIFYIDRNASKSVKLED
proteins of U3A human fibrosarcoma cells (4462 proteins detected) (Homo sapiens, UniProt Q05397), sequence (Q05397 whole entry): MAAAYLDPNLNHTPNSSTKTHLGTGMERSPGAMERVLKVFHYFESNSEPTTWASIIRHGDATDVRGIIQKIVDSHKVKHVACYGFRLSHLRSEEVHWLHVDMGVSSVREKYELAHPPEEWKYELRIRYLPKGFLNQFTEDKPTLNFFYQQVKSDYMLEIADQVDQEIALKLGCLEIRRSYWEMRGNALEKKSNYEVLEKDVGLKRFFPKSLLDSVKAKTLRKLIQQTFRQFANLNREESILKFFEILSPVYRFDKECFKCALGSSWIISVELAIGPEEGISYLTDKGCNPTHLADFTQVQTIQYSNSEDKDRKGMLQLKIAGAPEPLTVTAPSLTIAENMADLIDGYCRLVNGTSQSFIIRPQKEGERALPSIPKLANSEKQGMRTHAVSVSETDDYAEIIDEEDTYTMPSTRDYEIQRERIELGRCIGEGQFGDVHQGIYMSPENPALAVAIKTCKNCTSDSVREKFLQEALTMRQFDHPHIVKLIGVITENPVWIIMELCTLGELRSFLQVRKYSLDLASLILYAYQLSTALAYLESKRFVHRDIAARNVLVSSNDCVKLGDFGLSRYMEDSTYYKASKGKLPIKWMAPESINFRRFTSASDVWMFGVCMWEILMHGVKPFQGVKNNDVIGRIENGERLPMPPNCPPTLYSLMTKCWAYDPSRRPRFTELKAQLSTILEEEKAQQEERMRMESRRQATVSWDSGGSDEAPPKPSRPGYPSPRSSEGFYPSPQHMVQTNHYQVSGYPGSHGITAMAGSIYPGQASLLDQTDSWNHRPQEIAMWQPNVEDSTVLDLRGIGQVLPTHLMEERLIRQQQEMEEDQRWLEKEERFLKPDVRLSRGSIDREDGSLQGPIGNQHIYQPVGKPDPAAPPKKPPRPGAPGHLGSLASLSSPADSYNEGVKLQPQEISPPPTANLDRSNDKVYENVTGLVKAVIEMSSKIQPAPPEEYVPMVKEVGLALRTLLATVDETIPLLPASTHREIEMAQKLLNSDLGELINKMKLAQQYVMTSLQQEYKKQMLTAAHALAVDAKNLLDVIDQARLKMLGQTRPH
proteins of U3A human fibrosarcoma cells (4462 proteins detected) (Homo sapiens, UniProt Q9Y6G5), sequence (Q9Y6G5 whole entry): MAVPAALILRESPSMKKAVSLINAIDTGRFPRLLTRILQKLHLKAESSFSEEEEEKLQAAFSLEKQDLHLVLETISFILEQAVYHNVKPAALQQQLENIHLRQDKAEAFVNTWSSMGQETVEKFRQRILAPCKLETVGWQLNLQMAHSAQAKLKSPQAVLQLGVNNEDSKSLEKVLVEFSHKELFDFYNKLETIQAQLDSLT
proteins of U3A human fibrosarcoma cells (4462 proteins detected) (Homo sapiens, UniProt Q9NWT1), sequence (Q9NWT1 whole entry): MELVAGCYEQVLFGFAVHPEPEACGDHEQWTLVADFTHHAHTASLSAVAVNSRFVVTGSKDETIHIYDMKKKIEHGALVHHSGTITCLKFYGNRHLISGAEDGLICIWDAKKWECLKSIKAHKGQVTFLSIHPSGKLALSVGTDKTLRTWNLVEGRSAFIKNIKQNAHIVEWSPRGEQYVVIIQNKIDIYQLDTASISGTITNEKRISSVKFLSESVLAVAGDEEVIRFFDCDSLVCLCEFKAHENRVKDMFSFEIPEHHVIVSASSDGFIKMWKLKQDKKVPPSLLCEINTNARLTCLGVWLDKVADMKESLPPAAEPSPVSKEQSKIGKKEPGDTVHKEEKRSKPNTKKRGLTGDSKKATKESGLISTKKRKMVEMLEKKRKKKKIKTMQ
proteins of U3A human fibrosarcoma cells (4462 proteins detected) (Homo sapiens, UniProt P31689), sequence (P31689 whole entry): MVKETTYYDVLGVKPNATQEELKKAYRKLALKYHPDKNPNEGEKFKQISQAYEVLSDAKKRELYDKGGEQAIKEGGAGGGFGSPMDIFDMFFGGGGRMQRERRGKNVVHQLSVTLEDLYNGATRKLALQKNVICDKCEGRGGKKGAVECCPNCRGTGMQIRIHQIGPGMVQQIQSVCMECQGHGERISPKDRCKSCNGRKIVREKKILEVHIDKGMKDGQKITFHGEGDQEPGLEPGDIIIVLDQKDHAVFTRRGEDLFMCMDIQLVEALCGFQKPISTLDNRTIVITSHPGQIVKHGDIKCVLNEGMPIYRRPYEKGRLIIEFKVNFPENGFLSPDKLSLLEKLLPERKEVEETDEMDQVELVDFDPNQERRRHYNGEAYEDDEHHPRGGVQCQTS
proteins of U3A human fibrosarcoma cells (4462 proteins detected) (Homo sapiens, UniProt Q9UQ80), sequence (Q9UQ80 whole entry): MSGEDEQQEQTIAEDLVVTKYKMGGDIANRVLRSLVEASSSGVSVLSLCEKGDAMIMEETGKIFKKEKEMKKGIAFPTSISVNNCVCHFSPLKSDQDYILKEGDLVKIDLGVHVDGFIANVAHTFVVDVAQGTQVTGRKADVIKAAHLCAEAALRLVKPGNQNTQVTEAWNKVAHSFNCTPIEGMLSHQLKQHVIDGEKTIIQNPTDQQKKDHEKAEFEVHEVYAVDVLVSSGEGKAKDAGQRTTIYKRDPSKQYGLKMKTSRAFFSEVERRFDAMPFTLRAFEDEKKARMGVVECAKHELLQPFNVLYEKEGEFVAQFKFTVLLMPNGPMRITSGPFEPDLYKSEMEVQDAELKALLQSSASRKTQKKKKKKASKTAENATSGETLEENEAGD
proteins of U3A human fibrosarcoma cells (4462 proteins detected) (Homo sapiens, UniProt Q96AT1), sequence (Q96AT1 whole entry): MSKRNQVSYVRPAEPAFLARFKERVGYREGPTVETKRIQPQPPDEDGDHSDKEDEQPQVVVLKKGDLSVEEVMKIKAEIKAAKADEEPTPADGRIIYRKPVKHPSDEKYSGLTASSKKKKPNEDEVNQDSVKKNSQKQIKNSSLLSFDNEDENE
proteins of U3A human fibrosarcoma cells (4462 proteins detected) (Homo sapiens, UniProt O95197), sequence (O95197 whole entry): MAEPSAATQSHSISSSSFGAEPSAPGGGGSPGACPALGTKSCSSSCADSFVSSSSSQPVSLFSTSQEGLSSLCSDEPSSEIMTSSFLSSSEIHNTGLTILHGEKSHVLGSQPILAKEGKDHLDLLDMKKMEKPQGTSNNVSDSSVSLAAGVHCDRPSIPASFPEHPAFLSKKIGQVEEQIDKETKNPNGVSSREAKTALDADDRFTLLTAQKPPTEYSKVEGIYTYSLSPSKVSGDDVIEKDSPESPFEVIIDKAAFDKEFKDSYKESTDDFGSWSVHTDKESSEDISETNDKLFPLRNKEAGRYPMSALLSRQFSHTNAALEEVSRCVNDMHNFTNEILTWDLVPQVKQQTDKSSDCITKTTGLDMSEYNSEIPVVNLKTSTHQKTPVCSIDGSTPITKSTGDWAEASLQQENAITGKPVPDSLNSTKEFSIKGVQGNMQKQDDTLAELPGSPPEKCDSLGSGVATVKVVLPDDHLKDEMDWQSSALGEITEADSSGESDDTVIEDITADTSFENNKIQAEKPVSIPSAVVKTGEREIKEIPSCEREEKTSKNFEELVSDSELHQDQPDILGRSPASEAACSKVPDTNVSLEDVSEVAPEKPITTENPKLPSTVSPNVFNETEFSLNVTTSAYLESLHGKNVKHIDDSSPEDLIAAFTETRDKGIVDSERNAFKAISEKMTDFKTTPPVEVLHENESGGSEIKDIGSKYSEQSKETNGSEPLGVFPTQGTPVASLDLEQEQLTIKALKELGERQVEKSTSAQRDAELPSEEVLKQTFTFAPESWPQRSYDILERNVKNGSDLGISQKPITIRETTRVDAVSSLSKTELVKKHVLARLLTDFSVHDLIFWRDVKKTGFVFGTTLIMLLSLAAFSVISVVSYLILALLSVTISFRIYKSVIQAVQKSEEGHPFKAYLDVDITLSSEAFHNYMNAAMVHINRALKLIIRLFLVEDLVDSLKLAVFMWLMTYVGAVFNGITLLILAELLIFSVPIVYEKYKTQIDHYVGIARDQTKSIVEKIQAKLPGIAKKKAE
proteins of U3A human fibrosarcoma cells (4462 proteins detected) (Homo sapiens, UniProt Q9HAT2), sequence (Q9HAT2 24-523): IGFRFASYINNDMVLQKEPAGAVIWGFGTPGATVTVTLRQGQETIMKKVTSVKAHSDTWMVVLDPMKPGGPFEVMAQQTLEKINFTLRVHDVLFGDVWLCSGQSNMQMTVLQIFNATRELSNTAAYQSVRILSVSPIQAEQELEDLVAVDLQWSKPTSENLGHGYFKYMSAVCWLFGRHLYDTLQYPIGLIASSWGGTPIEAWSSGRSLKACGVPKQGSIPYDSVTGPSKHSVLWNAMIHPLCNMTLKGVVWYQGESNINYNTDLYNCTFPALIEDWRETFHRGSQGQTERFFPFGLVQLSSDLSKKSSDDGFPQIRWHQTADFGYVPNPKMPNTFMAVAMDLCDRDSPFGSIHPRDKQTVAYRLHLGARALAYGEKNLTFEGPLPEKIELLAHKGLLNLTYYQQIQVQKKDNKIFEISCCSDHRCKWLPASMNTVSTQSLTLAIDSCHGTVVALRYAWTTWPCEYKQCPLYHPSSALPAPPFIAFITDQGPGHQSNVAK
proteins of U3A human fibrosarcoma cells (4462 proteins detected) (Homo sapiens, UniProt Q9NRW3), sequence (Q9NRW3 whole entry): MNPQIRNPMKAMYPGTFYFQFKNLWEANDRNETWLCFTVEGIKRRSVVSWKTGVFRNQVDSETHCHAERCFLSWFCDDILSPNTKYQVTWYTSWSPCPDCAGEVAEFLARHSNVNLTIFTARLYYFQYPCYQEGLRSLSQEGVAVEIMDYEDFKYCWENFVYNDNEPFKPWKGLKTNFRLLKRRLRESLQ

Structure (SMILES): CCc1nc(N)nc(N)c1-c1ccc(Cl)cc1 [pyrimethamine]
- Log2 (PYR/DMSO) [1]: 0.22
- Log2 (PYR/DMSO) [2]: 0.16
- Log2 (PYR/DMSO), SIAE [3]: 0.34
- Log2 (PYR/DMSO) [4]: 0.17
- Log2 (PYR/DMSO) [5]: 0.17
- Log2 (PYR/DMSO) [6]: 0.15
- Log2 (PYR/DMSO) [7]: -0.04
- Log2 (PYR/DMSO) [8]: -0.05
- Log2 (PYR/DMSO) [9]: 0.21
- Log2 (PYR/DMSO), PNKP [10]: -0.22
- Log2 (PYR/DMSO) [11]: 0.13
- Log2 (PYR/DMSO) [12]: -0.05
- Log2 (PYR/DMSO) [13]: 0.14
- Log2 (PYR/DMSO) [14]: 0.16
- Log2 (PYR/DMSO) [15]: 0.14
- Log2 (PYR/DMSO) [16]: 0.22
- Log2 (PYR/DMSO) [17]: -0.04
- Log2 (PYR/DMSO) [18]: -0.04
- Log2 (PYR/DMSO) [19]: 0.17
- Log2 (PYR/DMSO) [20]: 0.22
- Log2 (PYR/DMSO) [21]: 0.18
- Log2 (PYR/DMSO), KIAA1143 [22]: -0.16
- Log2 (PYR/DMSO) [23]: -0.04
- Log2 (PYR/DMSO) [24]: 0.18
- Log2 (PYR/DMSO) [25]: 0.16
- Log2 (PYR/DMSO) [26]: 0.16
- Log2 (PYR/DMSO) [27]: 0.13
- Log2 (PYR/DMSO) [28]: 0.19
- Log2 (PYR/DMSO) [29]: -0.03
- Log2 (PYR/DMSO), HSPD1 [30]: 0.35
